Here are results for twelve molecules from patent publication US10011607B2, “Ethynyl derivatives” (Hoffmann-La Roche Inc., priority 2015, dated 2018).

For one assay, the system named is mice treated with MPTP. The note with it: cited from earlier work.
Another assay concerns rats (model of anxiety). The note with it: cited from earlier work.
Assay [1] concerns mice (model of anxiety). The note with it: reported by Addex 2010; cited from earlier work.
Assay [2] has as its system mice (model of anxiety). The note with it: reported by Addex 2010; cited from earlier work. This is another data set of the same source.
The target in another assay is human mGlu4 receptor (Homo sapiens (Human), UniProt Q14833). In words: Ca2+ mobilization in vitro assay on recombinant human mGlu4 expressed in HEK293 cells (PAM). The class given is cell-based. The note with it: for Emax: HEK293, maximal response in % of maximal stimulatory effect of saturating L-AP4, read-out: Eff. (%); for EC50: HEK293 cells, human mGlu4, in presence of EC20 of L-AP4, read-out: EC50 (nM) mGlu4PAM. The method in brief: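 HEK293 cells stably expressing human mGlu4 at low level, Fluo-4AM loaded; compound (11 half-log dilutions) pre-incubated 10–30 min at 37 °C, then L-AP4 added at EC20 (determined daily). Peak fluorescence minus basal, normalized to saturating L-AP4; EC50, Hill slope and % Emax from four-parameter fit.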
On the technique in general: A change in cytosolic calcium serves as a functional read-out for many receptors and channels.

Assay [3] deals with 6-OHDA rodent model of PD. The note with it: cited from earlier work.

Sequence of human mGlu4 receptor (Q14833 33-912): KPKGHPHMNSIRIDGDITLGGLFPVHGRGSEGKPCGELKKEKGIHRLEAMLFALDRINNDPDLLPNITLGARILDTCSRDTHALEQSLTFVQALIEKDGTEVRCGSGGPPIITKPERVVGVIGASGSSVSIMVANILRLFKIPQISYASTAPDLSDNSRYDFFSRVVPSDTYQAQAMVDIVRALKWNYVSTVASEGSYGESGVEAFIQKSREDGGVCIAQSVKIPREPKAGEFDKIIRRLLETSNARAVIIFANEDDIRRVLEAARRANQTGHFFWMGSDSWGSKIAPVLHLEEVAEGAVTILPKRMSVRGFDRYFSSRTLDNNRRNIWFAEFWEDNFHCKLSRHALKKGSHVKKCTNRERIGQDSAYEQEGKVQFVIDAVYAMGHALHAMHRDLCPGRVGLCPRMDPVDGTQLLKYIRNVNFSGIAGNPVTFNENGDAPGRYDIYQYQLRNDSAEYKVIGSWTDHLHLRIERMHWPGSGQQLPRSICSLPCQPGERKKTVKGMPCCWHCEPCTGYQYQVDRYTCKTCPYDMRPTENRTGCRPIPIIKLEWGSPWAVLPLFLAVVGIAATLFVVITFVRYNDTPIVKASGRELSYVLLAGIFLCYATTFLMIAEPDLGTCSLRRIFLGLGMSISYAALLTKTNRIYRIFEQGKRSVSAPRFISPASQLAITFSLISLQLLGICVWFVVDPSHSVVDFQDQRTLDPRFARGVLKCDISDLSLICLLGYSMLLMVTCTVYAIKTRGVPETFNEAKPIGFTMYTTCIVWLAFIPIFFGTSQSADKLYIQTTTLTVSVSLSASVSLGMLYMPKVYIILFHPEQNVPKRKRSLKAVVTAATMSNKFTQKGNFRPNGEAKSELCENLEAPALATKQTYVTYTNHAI

For the molecule `O=C(Nc1ccccc1)C12CC1/C(=N\O)c1ccccc1O2` (single isomer, unassigned; (-)) [(−)-PHCCC], in the assay with mice treated with MPTP, the nigrostriatal degeneration entry is recorded as “reduced nigrostriatal degeneration”.

Consider `Cc1ccnc(Nc2nc(-c3cn[nH]c3)c(C)s2)n1` [ADX88178], for which, in the assay with rats (model of anxiety) (rat, after oral dosing), the “profile in rat EPM test” value was “anxiolytic-like profile”. Further, the “activity in EPM” value with rats (model of anxiety) (rats, reported by Addex 2010) was “active”; in the assay on mice (model of anxiety) [2], “active”. Besides, the “activity in marble burying test” value in the assay on mice (model of anxiety) [1] is “active”.

For the molecule `CC(C)Oc1ncc(N2CCN3C(=O)N(c4c(F)cc(C#Cc5ccccc5)cc4F)C(=O)C[C@@]3(C)C2=O)cn1` [Example 40, (9aS)-7-[2,6-difluoro-4-(2-phenylethynyl)phenyl]-2-(2-isopropoxypyrimidin-5-yl)-9a-methyl-4,9-dihydro-3H-pyrazino[1,2-c]pyrimidine-1,6,8-trione], at human mGlu4 receptor, the Emax stood at 103% and the concentration for a half-maximal effect (EC50) (usually the midpoint of the concentration-response curve) was 113 nM.

On to `Cc1cc(N2CCN3C(=O)N(c4c(F)cc(C#Cc5ccccc5)cc4F)C(=O)CC3(C)C2=O)n(C)n1` (racemic) [Example 66, (9aRS)-7-[2,6-difluoro-4-(2-phenylethynyl)phenyl]-2-(2,5-dimethylpyrazol-3-yl)-9a-methyl-4,9-dihydro-3H-pyrazino[1,2-c]pyrimidine-1,6,8-trione], for which, on human mGlu4 receptor, the Emax is 142% and the EC50 came to 85 nM.

`Cc1ccnc(N2CCN3C(=O)N(c4c(F)cc(C#Cc5ccccc5)cc4F)C(=O)C[C@@]3(C)C2=O)c1` [Example 13, (9aS)-7-[2,6-difluoro-4-(2-phenylethynyl)phenyl]-9a-methyl-2-(4-methyl-2-pyridyl)-4,9-dihydro-3H-pyrazino[1,2-c]pyrimidine-1,6,8-trione]: at human mGlu4 receptor, the Emax came out at 148% and the EC50 is 131 nM.

With `Cn1cc(N2CCN3C(=O)N(c4c(F)cc(C#Cc5ccccc5)cc4Cl)C(=O)C[C@@]3(C)C2=O)cn1` [Example 78, (9aS)-7-[2-chloro-6-fluoro-4-(2-phenylethynyl)phenyl]-9a-methyl-2-(1-methylpyrazol-4-yl)-4,9-dihydro-3H-pyrazino[1,2-c]pyrimidine-1,6,8-trione], on human mGlu4 receptor, the Emax was found to be 117% and the EC50 was found to be 75 nM.

As to `COCC12CC(=O)N(c3c(F)cc(C#Cc4ccccc4)cc3F)C(=O)N1CCN(c1cnn(C)c1)C2=O` (racemic) [Example 104, (9aRS)-7-[2,6-difluoro-4-(2-phenylethynyl)phenyl]-9a-(methoxymethyl)-2-(1-methylpyrazol-4-yl)-4,9-dihydro-3H-pyrazino[1,2-c]pyrimidine-1,6,8-trione], on human mGlu4 receptor, the Emax is 148% and the EC50 came out at 273 nM.

As for `C[C@@]12CC(=O)N(c3c(F)cc(C#Cc4ccccc4)cc3F)C(=O)N1CCN(c1cnc(OC3CC3)nc1)C2=O` [Example 43, (9aS)-2-[2-(cyclopropoxy)pyrimidin-5-yl]-7-[2,6-difluoro-4-(2-phenylethynyl)phenyl]-9a-methyl-4,9-dihydro-3H-pyrazino[1,2-c]pyrimidine-1,6,8-trione], at human mGlu4 receptor, the Emax turned out to be 153% and the EC50 was found to be 171 nM.

As for `N[C@@H](CCP(=O)(O)O)C(=O)O` [L-AP4, (2S)-2-amino-4-phosphonobutanoic acid], the neuroprotection result in assay [3] was “neuroprotective effects”.

With `Cc1cncc(N2CCN3C(=O)N(c4c(F)cc(C#Cc5ccccc5)cc4F)C(=O)C[C@@]3(C)C2=O)c1` [Example 15, (9aS)-7-[2,6-difluoro-4-(2-phenylethynyl)phenyl]-9a-methyl-2-(5-methyl-3-pyridyl)-4,9-dihydro-3H-pyrazino[1,2-c]pyrimidine-1,6,8-trione], on human mGlu4 receptor, the Emax amounted to 90% and the EC50 is 152 nM.

As for `COCCN1CCN2C(=O)N(c3c(F)cc(C#Cc4ccccc4)cc3F)C(=O)C[C@@]2(C)C1=O` [Example 79, (9aS)-7-[2,6-difluoro-4-(2-phenylethynyl)phenyl]-2-(2-methoxyethyl)-9a-methyl-4,9-dihydro-3H-pyrazino[1,2-c]pyrimidine-1,6,8-trione], on human mGlu4 receptor, the Emax was 122% and the EC50 is 137 nM.

With `Cc1cncc(N2CCN3C(=O)N(c4c(F)cc(C#Cc5ccccc5)cc4F)C(=O)CC3(C)C2=O)c1` (racemic) [Example 14, (9aRS)-7-[2,6-difluoro-4-(2-phenylethynyl)phenyl]-9a-methyl-2-(5-methyl-3-pyridyl)-4,9-dihydro-3H-pyrazino[1,2-c]pyrimidine-1,6,8-trione], on human mGlu4 receptor, the Emax amounted to 129% and the EC50 stood at 105 nM.
